Patent US20120034613A1, “Apparatus and Method for Testing Relationships Between Gene Expression and Physical Appearance of Skin” (NSE Products, Inc., priority 2010, published 2012)

Tested on: EpidermFT™ Skin Model (EFT-400) full thickness skin cultures
Assay: Affymetrix GeneChip HG U133 Plus 2.0 microarray global gene expression, agent-exposed vs untreated skin cultures
Format: cell-based, human
Conditions: 0.5%, 24 hr

Structure (SMILES): OCc1ccccc1O[C@@H]1O[C@H](CO)[C@@H](O)[C@H](O)[C@H]1O [Salicin, 2-(Hydroxymethyl)phenyl β-D-glucospyranoside]
- Direction CYR61 (probe 210764_s_at): up
- Fold change CYR61 (probe 210764_s_at): 2.692
- Direction PLAUR (probe 210845_s_at): up
- Fold change PLAUR (probe 210845_s_at): 2.249
- Direction HGF (probe 210998_s_at): up
- Fold change HGF (probe 210998_s_at): 4.35
- Direction SERPINB4 (probe 211906_s_at): down
- Fold change SERPINB4 (probe 211906_s_at): 5.613
- Direction CAT (probe 211922_s_at): down
- Fold change CAT (probe 211922_s_at): 2.095
- Direction IGFBP5 (probe 211958_at): up
- Fold change IGFBP5 (probe 211958_at): 2.712
- Direction COL4A1 (probe 211981_at): up
- Fold change COL4A1 (probe 211981_at): 2.121
- Direction RHOB (probe 212099_at): up
- Fold change RHOB (probe 212099_at): 3.764
- Direction SGPL1 (probe 212321_at): down
- Fold change SGPL1 (probe 212321_at): 2.406
- Direction SULF1 (probe 212353_at): up
- Fold change SULF1 (probe 212353_at): 4.424
- Direction LCN2 (probe 212531_at): down
- Fold change LCN2 (probe 212531_at): 12.01
- Direction PRKCA (probe 213093_at): up
- Fold change PRKCA (probe 213093_at): 2.125
- Direction STARD13 (probe 213103_at): up
- Fold change STARD13 (probe 213103_at): 2.844
- Direction HSPA6 (probe 213418_at): up
- Fold change HSPA6 (probe 213418_at): 14.24
- Direction MFAP5 (probe 213764_s_at): down
- Fold change MFAP5 (probe 213764_s_at): 2.112
- Direction STARD5 (probe 213820_s_at): down
- Fold change STARD5 (probe 213820_s_at): 3.436
- Direction SST (probe 213921_at): up
- Fold change SST (probe 213921_at): 4.356
- Direction PTGER3 (probe 213933_at): down
- Fold change PTGER3 (probe 213933_at): 13.58
- Direction COL4A6 (probe 213992_at): down
- Fold change COL4A6 (probe 213992_at): 4.8
- Direction S100A8 (probe 214370_at): up
- Fold change S100A8 (probe 214370_at): 2.98
- Direction ELL2 (probe 214446_at): up
- Fold change ELL2 (probe 214446_at): 2.557
- Direction FN1 (probe 214702_at): up
- Fold change FN1 (probe 214702_at): 2.71
- Direction ADAMTS3 (probe 214913_at): up
- Fold change ADAMTS3 (probe 214913_at): 2.145
- Direction SOD2 (probe 215078_at): up
- Fold change SOD2 (probe 215078_at): 5.712
- Direction KLK10 (probe 215808_at): down
- Fold change KLK10 (probe 215808_at): 4.673
- Direction FNDC3A (probe 215910_s_at): up
- Fold change FNDC3A (probe 215910_s_at): 3.663
- Direction TNC (probe 216005_at): up
- Fold change TNC (probe 216005_at): 2.719
- Direction MAP3K4 (probe 216199_s_at): up
- Fold change MAP3K4 (probe 216199_s_at): 2.654
- Direction NR4A2 (probe 216248_s_at): up
- Fold change NR4A2 (probe 216248_s_at): 7.592
- Direction LTB4R (probe 216388_s_at): down
- Fold change LTB4R (probe 216388_s_at): 2.456
- Direction CCL2 (probe 216598_s_at): up
- Fold change CCL2 (probe 216598_s_at): 5.407
- Direction KLK1 (probe 216699_s_at): down
- Fold change KLK1 (probe 216699_s_at): 2.169
- Direction NR4A3 (probe 216979_at): up
- Fold change NR4A3 (probe 216979_at): 7.204
- Direction NAMPT (probe 217738_at): up
- Fold change NAMPT (probe 217738_at): 2.668
- Direction TSPAN13 (probe 217979_at): down
- Fold change TSPAN13 (probe 217979_at): 2.401
- Direction PHLDA1 (probe 217997_at): up
- Fold change PHLDA1 (probe 217997_at): 3.409
- Direction ZC3H12A (probe 218810_at): up
- Fold change ZC3H12A (probe 218810_at): 2.117
- Direction LASS4 (probe 218922_s_at): down
- Fold change LASS4 (probe 218922_s_at): 3.028
- Direction KRT23 (probe 218963_s_at): down
- Fold change KRT23 (probe 218963_s_at): 10.94
- Direction IL20RA (probe 219115_s_at): down
- Fold change IL20RA (probe 219115_s_at): 12.07
- Direction HSPBAP1 (probe 219284_at): up
- Fold change HSPBAP1 (probe 219284_at): 2.08
- Direction MREG (probe 219648_at): down
- Fold change MREG (probe 219648_at): 2.887
- Direction SMPD3 (probe 219695_at): down
- Fold change SMPD3 (probe 219695_at): 13.66
- Direction IL23A (probe 220054_at): up
- Fold change IL23A (probe 220054_at): 2.967
- Direction IL22RA1 (probe 220056_at): down
- Fold change IL22RA1 (probe 220056_at): 2.023
- Direction HYAL4 (probe 220249_at): down
- Fold change HYAL4 (probe 220249_at): 3.117
- Direction CALML5 (probe 220414_at): down
- Fold change CALML5 (probe 220414_at): 8.749
- Direction PSORS1C2 (probe 220635_at): down
- Fold change PSORS1C2 (probe 220635_at): 19.08
- Direction IL19 (probe 220745_at): up
- Fold change IL19 (probe 220745_at): 2.278
- Direction IL1F7 (probe 221470_s_at): down
- Fold change IL1F7 (probe 221470_s_at): 100.5
- Direction GDF15 (probe 221577_x_at): up
- Fold change GDF15 (probe 221577_x_at): 5.573
- Direction HSPB8 (probe 221667_s_at): down
- Fold change HSPB8 (probe 221667_s_at): 4.659
- Direction HMGCS1 (probe 221750_at): down
- Fold change HMGCS1 (probe 221750_at): 2.406
- Direction DNAJC10 (probe 221782_at): up
- Fold change DNAJC10 (probe 221782_at): 2.553
- Direction KLF4 (probe 221841_s_at): down
- Fold change KLF4 (probe 221841_s_at): 2.468
- Direction CLDN1 (probe 222549_at): down
- Fold change CLDN1 (probe 222549_at): 7.758
- Direction HPSE (probe 222881_at): down
- Fold change HPSE (probe 222881_at): 4.194
